Columns and labels:
[1] = molecular target: T1, SARS-CoV-2 main protease (M^pro) (Severe acute respiratory syndrome coronavirus 2, UniProt P0DTD1); test: Rapid-Fire MS Biochemical Assay measuring Mpro activity (5 nM Mpro); conditions: Mpro inhibition, 5 μM substrate peptide, 120 min
[2] = molecular target: T1, SARS-CoV-2 main protease (M^pro); test: Rapid-Fire MS Biochemical Assay measuring Mpro activity (12.5 nM Mpro); conditions: Table 1A, Mpro inhibition, 5 μM substrate peptide, 30 min
[3] = Table 1B, read-out: Rapid-Fire Assay IC50

Row | Compound | IC50 [1, 3] | IC50 [2] | IC50 ([1]; Rapid-Fire Assay IC50, Table 1B)
1 | N#C[C@H]1CN(c2ccccc2)C(=O)N1c1cncc2ccccc12 (single isomer, unassigned) [Compound 1a] | < 20 nM | 9 nM | 
2 | N#CC1CN(c2cccc(Cl)c2)C(=O)N1c1cncc2ccccc12 (racemic) [Compound 2, 1-(3-chlorophenyl)-3-(isoquinolin-4-yl)-2-oxoimidazolidine-4-carbonitrile] | < 20 nM | 5 nM | 
3 | N#CC1CN(c2ccccc2)C(=O)N1c1cncc2ccccc12 (racemic) [Compound 1, 3-(isoquinolin-4-yl)-2-oxo-1-phenylimidazolidine-4-carbonitrile] | 20 to 200 nM | 37 nM | 
4 | N#CC1CN(c2ccc(Cl)cn2)C(=O)N1c1cncc2ccccc12 (racemic) [Compound 10, 1-(5-chloropyridin-2-yl)-3-(isoquinolin-4-yl)-2-oxoimidazolidine-4-carbonitrile] | < 20 nM | 5 nM | 
5 | N#CC1CN(c2ccc(C(F)(F)F)cc2)C(=O)N1c1cncc2ccccc12 (racemic) [Compound 4, 3-(isoquinolin-4-yl)-2-oxo-1-(4-(trifluoromethyl)phenyl)imidazolidine-4-carbonitrile] | < 20 nM | < 5 nM | 
6 | N#CC1CN(c2ccc(F)cc2)C(=O)N1c1cncc2ccccc12 (racemic) [Compound 6, 1-(4-fluorophenyl)-3-(isoquinolin-4-yl)-2-oxoimidazolidine-4-carbonitrile] | 20 to 200 nM | 27 nM | 
7 | N#CC1CN(c2ccc(C(F)(F)F)cn2)C(=O)N1c1cncc2ccccc12 (racemic) [Compound 3, 3-(isoquinolin-4-yl)-2-oxo-1-(5-(trifluoromethyl)pyridin-2-yl)imidazolidine-4-carbonitrile] | < 20 nM | 7 nM | 
8 | N#CC1CN(c2ccc(Cl)cc2)C(=O)N1c1cncc2ccccc12 (stereo not shown) [Compound 5, 1-(4-chlorophenyl)-3-(isoquinolin-4-yl)-2-oxoimidazolidine-4-carbonitrile] | < 20 nM | < 5 nM | 
9 | N#CC1CN(c2ccc(F)cn2)C(=O)N1c1cncc2ccccc12 (stereo not shown) [Compound 8, 1-(5-fluoropyridin-2-yl)-3-(isoquinolin-4-yl)-2-oxoimidazolidine-4-carbonitrile] | 20 to 200 nM | 77 nM | 
10 | N#C[C@@H]1CN(c2ccccc2)C(=O)N1c1cncc2ccccc12 (single isomer, unassigned) [Compound 1b] | > 1000 nM | 6400 nM | 
11 | N#C[C@H]1CN(c2cccc(Cl)c2)C(=O)N1c1cncc2ccccc12 (single isomer, unassigned) [Compound 2a] | < 20 nM | < 5 nM | 
12 | N#C[C@@H]1CN([C@@H]2CCN(CCC(F)(F)F)C2)C(=O)N1c1cncc2ccccc12 (single isomer, unassigned) [Compound 26b] | > 1000 nM |  | 
13 | N#C[C@@H]1CN(c2cccc3cn[nH]c23)C(=O)N1c1cncc2ccccc12 (single isomer, unassigned) [Compound 63b] | > 1000 nM |  | 
14 | N#Cc1cccc(N2C[C@@H](C#N)N(c3cncc4ccccc34)C2=O)c1 (single isomer, unassigned) [Compound 52b] | 200 to 1000 nM |  | 
15 | Cc1ncc(N2C[C@H](C#N)N(c3cncc4ccccc34)C2=O)cn1 (single isomer, unassigned) [Compound 79a] | 20 to 200 nM |  | 
16 | Cc1c[nH]c(N2C[C@H](C#N)N(c3cncc4ccccc34)C2=O)n1 (single isomer, unassigned) [Compound 118a] | 200 to 1000 nM |  | 
17 | Cc1cnc(C(F)(F)F)cc1N1C[C@@H](C#N)N(c2cncc3ccccc23)C1=O (single isomer, unassigned) [Compound 70b] | > 1000 nM |  | 
18 | N#C[C@H]1CN(c2ccc(OC(F)F)cc2)C(=O)N1c1cncc2ccccc12 (single isomer, unassigned) [Compound 71a] | < 20 nM |  | 
19 | N#CC1CN(c2cccc(OC(F)F)c2)C(=O)N1c1cncc2ccccc12 (racemic) [Compound 89, 1-(3-(difluoromethoxy)phenyl)-3-(isoquinolin-4-yl)-2-oxoimidazolidine-4-carbonitrile] | 200 to 1000 nM |  | 
20 | N#CC1CN(C23CC(F)(C2)C3)C(=O)N1c1cncc2ccccc12 (racemic) [Compound 139, 1-(3-fluorobicyclo[1.1.1]pentan-1-yl)-3-(isoquinolin-4-yl)-2-oxoimidazolidine-4-carbonitrile] | 20 to 200 nM |  | 
21 | N#C[C@@H]1CN([C@H]2C[C@H](C3CC3)C2)C(=O)N1c1cncc2ccccc12 [Compound 124c, (S)-1-((1r,3S)-3-cyclopropylcyclobutyl)-3-(isoquinolin-4-yl)-2-oxoimidazolidine-4-carbonitrile] | > 1000 nM |  | 
22 | N#C[C@@H]1CN(c2ccc(C(F)F)cc2)C(=O)N1c1cncc2ccccc12 (single isomer, unassigned) [Compound 108b] | > 1000 nM |  | 
23 | N#C[C@H]1CN(C2CCC(F)(F)C2)C(=O)N1c1cncc2ccccc12 (single isomer, unassigned) [Compound 141a, (R)-1-((S)-3,3-difluorocyclopentyl)-3-(isoquinolin-4-yl)-2-oxoimidazolidine-4-carbonitrile or (R)-1-((R)-3,3-difluorocyclopentyl)-3-(isoquinolin-4-yl)-2-oxoimidazolidine-4-carbonitrile] | 20 to 200 nM |  | 
24 | Cn1cc(N2C[C@H](C#N)N(c3cncc4ccccc34)C2=O)cn1 (single isomer, unassigned) [Compound 65a] | 20 to 200 nM |  | 

Row | Compound | IC50 [1, 3] | IC50 [2] | IC50 ([1]; Rapid-Fire Assay IC50, Table 1B)
25 | CS(=O)(=O)N1CC(N2C[C@H](C#N)N(c3cncc4ccccc34)C2=O)C1 (single isomer, unassigned) [Compound 130a] | 200 to 1000 nM |  | 
26 | N#CC1CN(C2CC(O)(C(F)(F)F)C2)C(=O)N1c1cncc2ccccc12 (racemic) [Compound 28, 1-(3-hydroxy-3-(trifluoromethyl)cyclobutyl)-3-(isoquinolin-4-yl)-2-oxoimidazolidine-4-carbonitrile] | 20 to 200 nM |  | 
27 | N#C[C@H]1CN([C@H]2CC[C@H](C(F)(F)F)CC2)C(=O)N1c1cncc2ccccc12 [Compound 128a, (R)-3-(isoquinolin-4-yl)-2-oxo-1-((1 r,4R)-4-(trifluoromethyl)cyclohexyl)imidazolidine-4-carbonitrile] | < 20 nM |  | 
28 | CC1CC(N2CC(C#N)N(c3cncc4ccccc34)C2=O)C1 (single isomer, unassigned) [Compound 120d] | > 1000 nM |  | 
29 | N#C[C@H]1CN(c2nccc(C(F)(F)F)n2)C(=O)N1c1cncc2ccccc12 (single isomer, unassigned) [Compound 49a] | 20 to 200 nM |  | 
30 | COc1cnc(C(F)(F)F)nc1N1C[C@H](C#N)N(c2cncc3ccccc23)C1=O (single isomer, unassigned) [Compound 31a] | 20 to 200 nM |  | 
31 | N#C[C@@H]1CN(C2CN(S(=O)(=O)C(F)(F)F)C2)C(=O)N1c1cncc2ccccc12 (single isomer, unassigned) [Compound 129b] | > 1000 nM |  | 
32 | N#Cc1ccc(N2C[C@H](C#N)N(c3cncc4ccccc34)C2=O)cc1F (single isomer, unassigned) [Compound 73a] |  |  | < 20 nM
33 | CC(C)[C@H]1C[C@H](N2C[C@@H](C#N)N(c3cncc4ccccc34)C2=O)C1 [Compound 123d, (S)-1-((1r,3S)-3-isopropylcyclobutyl)-3-(isoquinolin-4-yl)-2-oxoimidazolidine-4-carbonitrile] | > 1000 nM |  | 
34 | N#C[C@@H]1CN([C@H]2CC[C@H](F)CC2)C(=O)N1c1cncc2ccccc12 [Compound 121c, (S)-1-((1 r,4S)-4-fluorocyclohexyl)-3-(isoquinolin-4-yl)-2-oxoimidazolidine-4-carbonitrile] | > 1000 nM |  | 
35 | CN1CC(N2CC(C#N)N(c3cncc4ccccc34)C2=O)C1 (stereo not shown) [Compound 132, 3-(isoquinolin-4-yl)-1-(1-methylazetidin-3-yl)-2-oxoimidazolidine-4-carbonitrile] | > 1000 nM |  | 
36 | Cc1cc(N2C[C@H](C#N)N(c3cncc4ccccc34)C2=O)cnc1C (single isomer, unassigned) [Compound 98a] | < 20 nM |  | 
37 | N#C[C@H]1CN(c2ccc(Cl)cn2)C(=O)N1c1cncc2ccccc12 (single isomer, unassigned) [Compound 41a] | < 20 nM |  | 
38 | N#C[C@H]1CN(c2cccc(Cl)n2)C(=O)N1c1cncc2ccccc12 (single isomer, unassigned) [Compound 111a] | < 20 nM |  | 
39 | N#C[C@H]1CN(c2cccc(Cl)c2)C(=O)N1c1cncc2ccc(C(=O)O)cc12 (single isomer, unassigned) [Compound 33a] | < 20 nM |  | 
40 | CC(C)(O)c1cccc(N2C[C@@H](C#N)N(c3cncc4ccccc34)C2=O)c1 (single isomer, unassigned) [Compound 69b] | > 1000 nM |  | 
41 | COc1ccc(F)cc1N1C[C@@H](C#N)N(c2cncc3ccccc23)C1=O (single isomer, unassigned) [Compound 105b] | > 1000 nM |  | 
42 | Cn1cc(N2CC(C#N)N(c3cncc4ccccc34)C2=O)cn1 (racemic) [Compound 65, 3-(isoquinolin-4-yl)-1-(1-methyl-1H-pyrazol-4-yl)-2-oxoimidazolidine-4-carbonitrile] | 200 to 1000 nM |  | 
43 | N#Cc1cc(Cl)ccc1N1CC(C#N)N(c2cncc3ccccc23)C1=O (racemic) [Compound 60, 1-(4-chloro-2-cyanophenyl)-3-(isoquinolin-4-yl)-2-oxoimidazolidine-4-carbonitrile] | 20 to 200 nM |  | 
44 | N#C[C@H]1CN(c2cncc(C(F)(F)F)c2)C(=O)N1c1cncc2ccccc12 (single isomer, unassigned) [Compound 104a] | < 20 nM |  | 
45 | Cc1ccc(F)cc1N1C[C@@H](C#N)N(c2cncc3ccccc23)C1=O (single isomer, unassigned) [Compound 21b] | > 1000 nM |  | 
46 | N#C[C@@H]1CN(c2ccc(C(F)(F)F)nn2)C(=O)N1c1cncc2ccccc12 (single isomer, unassigned) [Compound 81b] | > 1000 nM |  | 
47 | N#Cc1ccc(N2C[C@@H](C#N)N(c3cncc4ccccc34)C2=O)cc1 (single isomer, unassigned) [Compound 50b] | > 1000 nM |  | 

— US20250092016A1, “COMPOUNDS AND COMPOSITIONS FOR THE TREATMENT OF CORONAVIRAL RELATED DISEASES” (priority 2021, published 2025)
